Measurements taken from the supplement of paper PMC4862054.
“And” between values parts separate entries of the source, which are not always exact repeats. Identical values can stand only once.

Key:
Conditions in all cases: incubation time: 72 h
[1] = system: MDA-MB-453; assay: normalised viability (% of control), CellTiter-Blue; higher = more viable cells (about 100 = DMSO control)
Summary of the method: (§1)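 After 72 h on compound-loaded 384-well plates, breast cancer cell lines received 2.5 µl CellTiter-Blue reagent for 2 h at 37 °C. Fluorescence at 560/590 nm was scaled per plate so that vehicle was 100 and a positive kill control was 0. The value stands for normalised viability at a single listed concentration of the series.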

[2] = system: CAL-85-1; assay: as above
Summary of the method: as §1

[3] = system: BT-549; assay: as above
Summary of the method: as §1

[4] = system: MDA-MB-468; assay: as above
Summary of the method: as §1

[5] = system: Hs578T; assay: normalised viability (% of control), CellTiter-Blue; higher = more viable cells (about 100 = DMSO control)
Description: (§2)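 DSRT, CellTiter-Blue viability, 72 h incubation. Signal is normalised to DMSO and benzethonium chloride controls. Value is the normalised response at dose 3.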

[6] = system: CAL-148; assay: as above
Description: as §2

[7] = system: MDA-MB-453; assay: as above; remark: listed apart in the source
Description: as §2

[8] = system: HCC1143; assay: as above
Description: as §2

[9] = system: HCC1937; assay: as above
Description: as §2

[10] = system: CAL-85-1; assay: as above; remark: listed apart in the source
Description: as §2

[11] = system: BT-549; assay: as above; remark: listed apart in the source
Description: as §2

[12] = system: CAL-120; assay: as above
Description: as §2

[13] = system: MDA-MB-231; assay: as above
Description: as §2

[14] = system: CAL-51; assay: as above
Description: as §2

[15] = system: BT-474; assay: as above
Description: as §2

[16] = system: HDQ-P1; assay: as above
Description: as §2

[17] = system: MDA-MB-468; assay: as above; remark: listed apart in the source
Description: as §2

[18] = system: SK-BR-3; assay: as above
Description: as §2

[19] = system: MDA-MB-436; assay: as above
Description: as §2

[20] = system: HCC1599; assay: as above
Description: as §2

[21] = system: DU-4475; assay: as above
Description: as §2

[22] = system: MFM-223; assay: as above
Description: as §2

[23] = system: CAL-148; assay: drug sensitivity score (DSS), CellTiter-Glo (DSS (AUC-based score)); higher = stronger drug effect (viability inhibition or cytotoxicity); extreme values may be limits of the assay
Summary of the method: (§3)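 The drug sensitivity score was computed from the area under the fitted dose-response curve. Breast cancer cell lines in 20 µl suspension went into 384-well plates holding compound at 5 concentrations (10-fold steps over a 10,000-fold, compound-specific range) for 72 h of incubation. CellTox Green fluorescence (485/520 nm) was read before CellTiter-Glo luminescence, the latter after 10 min at room temperature, and each plate was normalised to 0.1 % DMSO and a positive kill control.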

[24] = system: MDA-MB-453; assay: as above
Summary of the method: as §3

[25] = system: CAL-51; assay: as above
Summary of the method: as §3

[26] = system: HDQ-P1; assay: as above
Summary of the method: as §3

[27] = system: SK-BR-3; assay: as above
Summary of the method: as §3

[28] = system: MDA-MB-436; assay: as above
Summary of the method: as §3

[29] = system: MCF-10A; assay: as above
Summary of the method: as §3

COc1cc2ncnc(Nc3ccc(F)c(Cl)c3)c2cc1OCCCN1CCOCC1 [Gefitinib]
Conditions | normalised viability
[1], 3 nM | 113% and 111%
[1], 30 nM | 85.4% and 90.8%
[1], 100 nM | 88.2% and 89.2%
[2], 3 nM | 90.7% and 85.5%
[2], 30 nM | 84.7% and 89.6%
[2], 100 nM | 88.5% and 85.5%
[3], 10 nM | 92.3% and 89.6%
[3], 1000 nM | 89% and 101%
[3], 10000 nM | 65.2% and 59.6%
[4], 10 nM | 97.6% and 107%
[4], 1000 nM | 57.8% and 65.9%
[4], 10000 nM | 38.7% and 38.4%
[5], 100 nM | 86.3% and 99.7%
[6], 10 nM | 84.8% and 87.6%
[7], 10 nM | 96.9%
[8], 100 nM | 63% and 86.8%
[9], 100 nM | 102% and 92%
[10], 10 nM | 94.2% and 95.5%
[11], 100 nM | 108%
[12], 100 nM | 81.9% and 92.8%
[13], 100 nM | 93.9% and 97%
[14], 10 nM | 107%
[15], 100 nM | 92.3% and 101%
[16], 10 nM | 103% and 100%
[17], 100 nM | 81.7% and 89.3%
[18], 100 nM | 80.9% and 72.1%
[19], 100 nM | 89.9% and 93.7%
[20], 100 nM | 102% and 113%
[21], 10 nM | 108% and 93.9%
[22], 100 nM | 98.7% and 89.5%

Conditions | drug sensitivity score
[23] | 2.08
[24] | 0
[25] | 0
[26] | 7.21
[27] | 10.1
[28] | 0
[29] | 17.7

CO[C@H]1C[C@@H]2CC[C@@H](C)[C@@](O)(O2)C(=O)C(=O)N2CCCC[C@H]2C(=O)O[C@H]([C@H](C)C[C@@H]2CC[C@@H](OP(C)(C)=O)[C@H](OC)C2)CC(=O)[C@H](C)/C=C(\C)[C@@H](O)[C@@H](OC)C(=O)[C@H](C)C[C@H](C)/C=C/C=C/C=C/1C [Ridaforolimus]
Conditions | normalised viability [%]
[1], 0.3 nM | 85.4
[1], 3 nM | 30
[1], 10 nM | 24.5
[2], 0.3 nM | 68
[2], 3 nM | 57.1
[2], 10 nM | 59.5
[3], 1 nM | 62.3
[3], 100 nM | 62.9
[3], 1000 nM | 56.8
[4], 1 nM | 66.4
[4], 100 nM | 59.3
[4], 1000 nM | 60.4
[5], 10 nM | 50.4
[6], 1 nM | 60.1
[7], 1 nM | 44.5
[8], 10 nM | 56.4
[9], 10 nM | 58.9
[10], 1 nM | 67.4
[11], 10 nM | 62.4
[12], 10 nM | 48.2
[13], 10 nM | 71.9
[14], 1 nM | 79
[15], 10 nM | 60.7
[16], 1 nM | 110
[17], 10 nM | 61.2
[18], 10 nM | 48.4
[19], 10 nM | 85.6
[20], 10 nM | 91.8
[21], 1 nM | 78.2
[22], 10 nM | 45.2

Conditions | drug sensitivity score
[23] | 7.53
[24] | 8.14
[25] | 8.46
[26] | 2.99
[27] | 10.4
[28] | 4.1
[29] | 0

Cc1ccc(NC(=O)c2ccc(CN3CCN(C)CC3)cc2)cc1Nc1nc(-c2cccnc2)cs1 [Masitinib]
Conditions | normalised viability [%]
[1], 3 nM | 112
[1], 30 nM | 123
[1], 100 nM | 105
[2], 3 nM | 94.8
[2], 30 nM | 75.5
[2], 100 nM | 90.8
[3], 10 nM | 94.2
[3], 1000 nM | 100
[3], 10000 nM | 51.2
[4], 10 nM | 93.3
[4], 1000 nM | 105
[4], 10000 nM | 53.4
[5], 100 nM | 86.6
[6], 10 nM | 89.8
[7], 10 nM | 103
[8], 100 nM | 83
[9], 100 nM | 107
[10], 10 nM | 98.1
[11], 100 nM | 88.3
[12], 100 nM | 82.3
[13], 100 nM | 88.7
[14], 10 nM | 100
[15], 100 nM | 115
[16], 10 nM | 116
[17], 100 nM | 103
[18], 100 nM | 80.7
[19], 100 nM | 71.6
[20], 100 nM | 109
[21], 10 nM | 102
[22], 100 nM | 101

Conditions | drug sensitivity score
[23] | 0
[24] | 3.95
[25] | 4.22
[26] | 0.939
[27] | 1.79
[28] | 0
[29] | 0

COCC[n+]1c2c(n(Cc3cnccn3)c1C)C(=O)c1ccccc1C2=O [YM155]
Conditions | normalised viability [%]
[1], 3 nM | 70.7
[1], 30 nM | 18.7
[1], 100 nM | 18.2
[2], 3 nM | 90.3
[2], 30 nM | 3.33
[2], 100 nM | 1.96
[3], 10 nM | 83
[3], 1000 nM | 0.74
[3], 10000 nM | -0.61
[4], 10 nM | 12.8
[4], 1000 nM | 0.21
[4], 10000 nM | 0.26
[5], 100 nM | 47.6
[6], 10 nM | 61.4
[7], 10 nM | 44.7
[8], 100 nM | 12.4
[9], 100 nM | 3.81
[10], 10 nM | 29.7
[11], 100 nM | 34
[12], 100 nM | 5.35
[13], 100 nM | 1.71
[14], 10 nM | 70.5
[15], 100 nM | 1.04
[16], 10 nM | 64.2
[17], 100 nM | 0.74
[18], 100 nM | 1.25
[19], 100 nM | 2.36
[20], 100 nM | 10
[21], 10 nM | 110
[22], 100 nM | 26.1

Conditions | drug sensitivity score
[23] | 33
[24] | 29.6
[25] | 33.8
[26] | 33.5
[27] | 33
[28] | 40.6
[29] | 29.5

CN(C)CCOc1ccc(/C(=C(/CCCl)c2ccccc2)c2ccccc2)cc1 [Toremifene]
Conditions | normalised viability [%]
[1], 3 nM | 126
[1], 30 nM | 91.4
[1], 100 nM | 112
[2], 3 nM | 99.2
[2], 30 nM | 92.9
[2], 100 nM | 95.8
[3], 10 nM | 106
[3], 1000 nM | 113
[3], 10000 nM | 88.1
[4], 10 nM | 104
[4], 1000 nM | 109
[4], 10000 nM | 17.9
[5], 100 nM | 85.4
[6], 10 nM | 108
[7], 10 nM | 118
[8], 100 nM | 109
[9], 100 nM | 97.5
[10], 10 nM | 100
[11], 100 nM | 109
[12], 100 nM | 93.7
[13], 100 nM | 94.2
[14], 10 nM | 107
[15], 100 nM | 126
[16], 10 nM | 129
[17], 100 nM | 106
[18], 100 nM | 88.8
[19], 100 nM | 110
[20], 100 nM | 114
[21], 10 nM | 106
[22], 100 nM | 99.8

Conditions | drug sensitivity score
[23] | 0
[24] | 0
[25] | 0
[26] | 0
[27] | 0
[28] | 0
[29] | 1.79
